# According to patent US10188625B2, “Combination of a retinoid and a diol and polyunsaturated fatty acid ester” (PIERRE FABRE DERMO-COSMETIQUE, priority 2015, dated 2019):
# Assays:
# [1] = system: genes responsible for differentiation in keratinocytes (human skin explants); experiment: Microarray analysis of differentiation genes in human skin explants treated topically with retinaldehyde; assay type: cell-based; details: 0.025% in Myritol, topical 24 hours
# [2] = system: retentional lesions (open and closed comedones); experiment: Clinical study (open) of creams: count of retentional lesions in subjects with mild to moderate acne; assay type: in vivo, human; details: topical cream (retinaldehyde 0.1% and/or Compound A 0.6%)
# Description: The clinical trial was an open study involving 60 subjects (men and women) between 12 and 35 years of age with mild to moderate acne for purposes of testing the tolerance and efficacy of Composition 2.
# All of the participants initially had more than 10 retentional lesions (open and closed comedones) on their skin (excluding the nasal pyramid).
# The cream was applied to the face (clean skin) in the evening by means of gentle massage.
# The lesions were counted at T0 (before the first treatment), T3 weeks and T6 weeks according to the method described by Lucky (Lucky AW et al. (1996)).
# The clinical trial was an open study involving 29 subjects (men and women) between 12 and 35 years of age with mild to moderate acne for purposes of testing the tolerance and efficacy of cream having the following composition:
# All of the participants initially had more than 10 retentional lesions (open and closed comedones) on their skin.
# The lesions were counted at T0, T3 weeks and T6 weeks.
# The clinical trial was an open study involving 46 subjects (men and women) between 12 and 35 years of age with mild to moderate acne for purposes of testing the tolerance and efficacy of cream having the following composition:
# The cream was applied to the face (clean skin) twice per day (morning and evening) by means of gentle massage.
# [3] = system: keratinocyte proliferation; experiment: Keratinocyte proliferation; assay type: cell-based
# [4] = system: genes responsible for differentiation in keratinocytes (human skin explants); experiment: Microarray analysis of differentiation genes in human skin explants treated topically with retinaldehyde; assay type: cell-based
# Method: In these experiments, retinaldehyde was applied topically for 24 hours at a concentration of 0.025% dissolved in Myritol on human skin explants (of 3 donors) kept alive in culture medium (Dulbecco's Modified Eagle Medium (DMEM)+10% fetal bovine serum (FBS)). Myritol alone was used as the control. At the conclusion of this treatment, the RNA is extracted, inspected for quality, and analyzed by means of a microarray (Agilent Technology). They are averaged fold-change values below 1.8 (p<0.05). A fold change of −2.00 corresponds to a decrease in gene expression of about 50%.
# [5] = human skin explants (3 donors), control Myritol alone, p 0.115
smiles,measurement,setting,value
"CC1=C(/C=C/C(C)=C/C=C/C(C)=C/C=O)C(C)(C)CCC1 [Retinaldehyde, retinaldehyde]",number of keratins inhibited,[1]; human skin explants,11
same,number of targets of terminal keratinocyte differentiation inhibited,[1]; human skin explants,13
same,"Fold change, CNFN (cornifelin)","[1]; human skin explants (3 donors), control Myritol alone, p 0.004",−1.56
same,"Fold change, KRT16 (keratin 16)","[1]; human skin explants (3 donors), control Myritol alone, p 0.027",−2.63
same,"Fold change, CDSN (corneodesmosin)","[1]; human skin explants (3 donors), control Myritol alone, p 0.052",−1.49
same,"Fold change, DSG3 (desmoglein 3)","[1]; human skin explants (3 donors), control Myritol alone, p 0.056",−1.77
same,"Fold change, DSC1 (desmocollin 1)","[1]; human skin explants (3 donors), control Myritol alone, p 0.058",−1.70
same,"Fold change, DSG1 (desmoglein 1)","[1]; human skin explants (3 donors), control Myritol alone, p 0.070",−1.68
same,"Fold change, EVPL (envoplakin)","[1]; human skin explants (3 donors), control Myritol alone, p 0.072",−1.41
same,"Fold change, UPK2 (uroplakin 2)","[1]; human skin explants (3 donors), control Myritol alone, p 0.091",−1.53
same,"Fold change, DSC3 (desmocollin 3)","[1]; human skin explants (3 donors), control Myritol alone, p 0.095",−1.55
same,"Fold change, KRTAP11-1 (keratin associated protein 11-1)",[1]; [5],−4.68
same,"Fold change, LCE3A (late cornified envelope 3A)",[1]; [5],−2.73
same,"Fold change, LCE3D (late cornified envelope 3D)","[1]; human skin explants (3 donors), control Myritol alone, p 0.271",−1.90
same,"Fold change, KRTAP3-1 (keratin associated protein 3-1)","[1]; human skin explants (3 donors), control Myritol alone, p 0.288",−2.09
same,"Fold change, KRT6B (keratin 6B)","[1]; human skin explants (3 donors), control Myritol alone, p 0.325",−1.83
same,"Fold change, KRT27 (keratin 27)","[1]; human skin explants (3 donors), control Myritol alone, p 0.372",−2.66
same,"Fold change, KRT86 (keratin 86)","[1]; human skin explants (3 donors), control Myritol alone, p 0.472",−2.19
same,Change in mean number of retentional lesions,[2]; T = 3 weeks,−23%
same,Change in mean number of retentional lesions,[2]; T = 6 weeks,−37%
same,effect on cell (keratinocyte) proliferation,[3],does not increase cell proliferation
same,"Fold change, KRTCAP3 (keratinocyte associated protein 3)","[4]; 0.025% in Myritol, topical 24 hours, human skin explants (3 donors), control Myritol alone, p 0.009",−1.81
same,"Fold change, KRT6A (keratin 6A)","[4]; 0.025% in Myritol, topical 24 hours, human skin explants (3 donors), control Myritol alone, p 0.012",−2.83
same,"Fold change, KRT6C (keratin 6C)","[4]; 0.025% in Myritol, topical 24 hours, human skin explants (3 donors), control Myritol alone, p 0.015",−3.61
same,"Fold change, FLJ46111 (keratin 8 pseudogene)","[4]; 0.025% in Myritol, topical 24 hours, human skin explants (3 donors), control Myritol alone, p 0.016",−2.71
same,"Fold change, EPPK1 (epiplakin 1)","[4]; 0.025% in Myritol, topical 24 hours, human skin explants (3 donors), control Myritol alone, p 0.042",−1.60
same,effect on keratinocyte differentiation,[4]; conclusion from gene modulation in human skin explants,inhibits keratinocyte differentiation
CC/C=C\C/C=C\C/C=C\CCCCCCCC(=O)OCC(O)CCCCCC (centres unmarked) [Compound A],Change in mean number of retentional lesions,[2]; T = 3 weeks,−6%
same,Change in mean number of retentional lesions,[2]; T = 6 weeks,−19%
